Values of other authors as cited in US20090234270A1, “Therapy and device for treatment of nail infections” (Ondine International, Ltd., priority 2008, published 2009).

Key:
[1] = in vivo, po

SMILES | side effects [1] | other results
OC(Cn1cncn1)(Cn1cncn1)c1ccc(F)cc1F [Fluconazole] | severe side effects | 
COC1=CC(=O)C[C@@H](C)[C@]12Oc1c(Cl)c(OC)cc(OC)c1C2=O [Griseofulvin] | undesired side effects | efficacy in onychomycosis (onychomycosis; oral medicine): largely ineffectual
CC12CCC(CC1=O)C2(C)C (stereo not drawn) [camphor] |  | solubility in water: poorly soluble in water
CN(C/C=C/C#CC(C)(C)C)Cc1cccc2ccccc12 [Lamisil, terbinafine] |  | nail clearing, share of patients (onychomycosis; oral, once a day for 90 days, clearing for one year): 70-80%
CCC(C)n1ncn(-c2ccc(N3CCN(c4ccc(OCC5COC(Cn6cncn6)(c6ccc(Cl)cc6Cl)O5)cc4)CC3)cc2)c1=O (stereo not drawn) [itraconazole] | somewhat severe | 
